“Also recorded” adds a separate entry of the source.
Key:
native MOR [1] = settings: optical assays; cited from earlier work
[2] = tested on: water-soluble μ-opioid receptor (wsMOR); assay: wsMOR-functionalized graphene field-effect transistor; type: binding, human; settings: GFET, 1 nM oxytocin solution
[3] = tested on: water-soluble μ-opioid receptor (wsMOR); type: binding, human; settings: 1× PBS
native MOR [4] = settings: cited from earlier work

[D-Ala^2, N-MePhe^4, Gly-ol]-enkephalin
KA, binding between native MOR and enkephalin (native MOR [1]): 1.2−3.1 nM

oxytocin
Level of nonspecific binding to wsMOR [2]: low level of nonspecific binding | Sensor response (shift of the Dirac voltage, ΔVD) ([2]; negative control): 0.17 V | Response of the biosensor (selectivity, negative control) ([3]; concentrations below 1 μM, graphene microelectrode): essentially negligible | Specific binding to native MOR (native MOR [4]): known not to bind specifically to native MOR

β-endorphin
Ratio of amplitude A, β-endorphin to enkephalin ([3]; larger than the amplitude found for enkephalin): ~ 1.6 times | Limit of detection ([3]; physiological ionic strength): picomolar range; also recorded: picomolar level
